The source made the active and inactive calls. No cut-off for these calls is given here.
Assays:
[1] = molecular target: T1, von Hippel-Lindau disease tumor suppressor/Dual specificity mitogen-activated protein kinase kinase 1 (Homo sapiens) (UniProt Q02750+P40337); assay: Protac activity against VHL/MEK1 in human HT-29 cells harboring BRAF V600E variant assessed as degradation of MEK1 at 0.3 to 3 uM after 24 hrs by Western blot analysis; type: cell-based
[2] = molecular target: T2, von Hippel-Lindau disease tumor suppressor/Dual specificity mitogen-activated protein kinase kinase 2 (Homo sapiens) (UniProt P36507+P40337); assay: Protac activity against VHL/MEK2 in human HT-29 cells harboring BRAF V600E variant assessed as degradation of MEK2 at 0.3 to 3 uM after 24 hrs by Western blot analysis; type: cell-based
[3] = molecular target: Protein cereblon/Dual specificity mitogen-activated protein kinase kinase 1 (Homo sapiens) (UniProt Q02750+Q96SW2); assay: Protac activity against CRBN/MEK1 in human HT-29 cells harboring BRAF V600E variant assessed as degradation of MEK1 at 0.3 to 3 uM after 24 hrs by Western blot analysis; type: cell-based
[4] = molecular target: Protein cereblon/Dual specificity mitogen-activated protein kinase kinase 2 (Homo sapiens) (UniProt P36507+Q96SW2); assay: Protac activity against CRBN/MEK2 in human HT-29 cells harboring BRAF V600E variant assessed as degradation of MEK2 at 0.3 to 3 uM after 24 hrs by Western blot analysis; type: cell-based
[5] = molecular target: Dual specificity mitogen-activated protein kinase kinase 1 (Homo sapiens, UniProt Q02750); assay: Inhibition of recombinant full length human His-tagged MEK1 expressed in baculovirus expression system using ERK K52R dead variant as substrate preincubated for 20 mins followed by incubation with 33P-ATP addition for 2 hrs by hotspot kinase assay
[6] = molecular target: Dual specificity mitogen-activated protein kinase kinase 2 (Homo sapiens, UniProt P36507); assay: Inhibition of recombinant full length human His-tagged MEK2 expressed in baculovirus expression system using ERK K52R dead variant as substrate preincubated for 20 mins followed by incubation with 33P-ATP for 2 hrs by hotspot kinase assay
[7] = molecular target: T2, von Hippel-Lindau disease tumor suppressor/Dual specificity mitogen-activated protein kinase kinase 2 (Homo sapiens); assay: Protac activity against VHL/MEK2 in human HT-29 cells harboring with BRAF V600E variant assessed as degradation of MEK2 by measuring MEK2 protein level up to 1 uM after 24 hrs by Western blot analysis; type: cell-based
[8] = molecular target: T2, von Hippel-Lindau disease tumor suppressor/Dual specificity mitogen-activated protein kinase kinase 2 (Homo sapiens); assay: Protac activity against VHL/MEK2 in human SK-MEL-28 cells harboring with BRAF V600E variant assessed as degradation of MEK2 by measuring MEK2 protein level up to 1 uM after 24 hrs by Western blot analysis; type: cell-based
[9] = molecular target: T1, von Hippel-Lindau disease tumor suppressor/Dual specificity mitogen-activated protein kinase kinase 1 (Homo sapiens); assay: Protac activity against VHL/MEK1 in human HT-29 cells harboring with BRAF V600E variant assessed as degradation of MEK1 by measuring reduction in MEK1 protein level at 0.1 uM after 10 hrs by LC-MS based Volcano plot analysis; type: cell-based
[10] = molecular target: T2, von Hippel-Lindau disease tumor suppressor/Dual specificity mitogen-activated protein kinase kinase 2 (Homo sapiens); assay: Protac activity against VHL/MEK2 in human HT-29 cells harboring with BRAF V600E variant assessed as degradation of MEK2 by measuring reduction in MEK2 protein level at 0.1 uM after 10 hrs by LC-MS based Volcano plot analysis; type: cell-based
[11] = system: HT-29; assay: Antiproliferative activity against human HT-29 cells assessed as reduction in cell growth after 3 days by MTT assay; type: functional
[12] = system: SK-MEL-28; assay: Antiproliferative activity against human SK-MEL-28 cells assessed as reduction in cell growth after 3 days by MTT assay; type: functional
[13] = system: COLO 205; assay: Antiproliferative activity against human COLO205 cells assessed as reduction in cell growth after 3 days by WST8 assay; type: functional
[14] = system: UACC-257; assay: Antiproliferative activity against human UACC257 cells assessed as reduction in cell growth after 3 days by MTT assay; type: functional
[15] = system: HT-29; assay: Inhibition of colony formation in human HT-29 cells at 10 to 100 nM supplemented with fresh medium containing compound every 3 days for 14 days by crystal violet staining based assay; type: functional, cell-based
[16] = system: SK-MEL-28; assay: Inhibition of colony formation in human SK-MEL-28 cells at 10 to 100 nM supplemented with fresh medium containing compound every 3 days for 14 days by crystal violet staining based assay; type: functional, cell-based

T1 sequence (P40337 whole entry, looked up): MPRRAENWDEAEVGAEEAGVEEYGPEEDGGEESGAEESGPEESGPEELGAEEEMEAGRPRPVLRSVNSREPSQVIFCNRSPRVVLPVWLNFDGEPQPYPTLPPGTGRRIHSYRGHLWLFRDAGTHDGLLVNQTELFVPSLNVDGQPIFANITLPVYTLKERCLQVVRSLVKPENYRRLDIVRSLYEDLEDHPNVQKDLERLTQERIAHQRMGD
T1 sequence (Q02750 whole entry, looked up): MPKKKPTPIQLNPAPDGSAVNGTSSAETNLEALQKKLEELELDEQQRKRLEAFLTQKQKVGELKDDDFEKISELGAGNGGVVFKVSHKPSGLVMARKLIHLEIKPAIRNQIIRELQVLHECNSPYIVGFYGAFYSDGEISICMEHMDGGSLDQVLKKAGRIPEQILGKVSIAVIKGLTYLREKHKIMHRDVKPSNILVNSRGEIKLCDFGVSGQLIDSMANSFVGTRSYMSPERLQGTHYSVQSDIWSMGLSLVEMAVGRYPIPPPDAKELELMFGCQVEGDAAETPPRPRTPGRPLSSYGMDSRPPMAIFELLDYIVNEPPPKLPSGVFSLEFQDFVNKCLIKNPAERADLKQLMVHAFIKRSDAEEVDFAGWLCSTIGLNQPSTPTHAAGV
T2 sequence (P36507 whole entry, looked up): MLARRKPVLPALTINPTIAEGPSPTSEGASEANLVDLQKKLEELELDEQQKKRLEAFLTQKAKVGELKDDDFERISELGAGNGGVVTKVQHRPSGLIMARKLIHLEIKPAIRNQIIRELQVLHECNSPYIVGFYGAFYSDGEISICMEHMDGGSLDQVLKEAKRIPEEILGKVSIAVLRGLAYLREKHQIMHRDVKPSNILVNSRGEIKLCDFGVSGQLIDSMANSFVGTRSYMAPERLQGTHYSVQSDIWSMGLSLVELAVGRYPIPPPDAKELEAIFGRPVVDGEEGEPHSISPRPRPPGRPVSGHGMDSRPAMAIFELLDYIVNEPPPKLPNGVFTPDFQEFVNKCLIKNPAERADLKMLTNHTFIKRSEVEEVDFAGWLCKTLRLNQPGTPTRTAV
T2 sequence (P40337 whole entry, looked up): as the sequence (P40337 whole entry, looked up) above
Protein cereblon/Dual specificity mitogen-activated protein kinase kinase 2 (Homo sapiens), sequence (P36507 whole entry, looked up): as the sequence (P36507 whole entry, looked up) above
Protein cereblon/Dual specificity mitogen-activated protein kinase kinase 2 (Homo sapiens), sequence (Q96SW2 whole entry, looked up): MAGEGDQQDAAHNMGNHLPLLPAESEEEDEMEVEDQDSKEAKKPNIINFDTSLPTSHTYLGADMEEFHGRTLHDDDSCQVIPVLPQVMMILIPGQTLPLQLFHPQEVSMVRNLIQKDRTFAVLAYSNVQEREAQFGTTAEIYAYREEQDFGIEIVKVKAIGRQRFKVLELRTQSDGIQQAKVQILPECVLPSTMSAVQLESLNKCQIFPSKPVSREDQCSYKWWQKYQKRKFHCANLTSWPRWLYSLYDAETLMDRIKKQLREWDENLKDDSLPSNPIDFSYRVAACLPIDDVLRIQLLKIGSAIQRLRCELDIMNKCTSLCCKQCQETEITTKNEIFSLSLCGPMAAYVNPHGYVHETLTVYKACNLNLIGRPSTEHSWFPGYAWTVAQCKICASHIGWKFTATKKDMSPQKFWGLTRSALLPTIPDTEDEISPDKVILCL
Protein cereblon/Dual specificity mitogen-activated protein kinase kinase 1 (Homo sapiens), sequence (Q02750 whole entry, looked up): as the sequence (Q02750 whole entry, looked up) above
Protein cereblon/Dual specificity mitogen-activated protein kinase kinase 1 (Homo sapiens), sequence (Q96SW2 whole entry, looked up): as the sequence (Q96SW2 whole entry, looked up) above
Dual specificity mitogen-activated protein kinase kinase 2, sequence (P36507 whole entry): as the sequence (P36507 whole entry, looked up) above
Dual specificity mitogen-activated protein kinase kinase 1, sequence (Q02750 whole entry): as the sequence (Q02750 whole entry, looked up) above

In the case of `Cc1ncsc1-c1ccc(CNC(=O)[C@@H]2C[C@@H](O)CN2C(=O)[C@@H](NC(=O)COCCOCCOCCNCCCONC(=O)c2ccc(F)c(F)c2Nc2ccc(I)cc2F)C(C)(C)C)cc1`, the Activity [1] is reported as “Active” and the Activity [2] is reported as “Active”.

In the case of `O=C1CCC(N2C(=O)c3cccc(NCCOCCNCCCONC(=O)c4ccc(F)c(F)c4Nc4ccc(I)cc4F)c3C2=O)C(=O)N1` (stereo not given), the Activity [3] is reported as “inactive” and the Activity [4] is reported as “inactive”.

For `Cc1ncsc1-c1ccc(CNC(=O)[C@@H]2C[C@@H](O)CN2C(=O)[C@@H](NC(=O)CCCCCCCCCCNCCCONC(=O)c2ccc(F)c(F)c2Nc2ccc(I)cc2F)C(C)(C)C)cc1`, the Activity [1] was “Active” and the Activity [2] was “Active”.

With `Cc1ncsc1-c1ccc(CNC(=O)[C@@H]2C[C@@H](O)CN2C(=O)[C@@H](NC(=O)CCCCCCNCCCONC(=O)c2ccc(F)c(F)c2Nc2ccc(I)cc2F)C(C)(C)C)cc1` the Activity [1] was “Active” and the Activity [2] was “Active”.

For `Cc1ncsc1-c1ccc([C@H](C)NC(=O)[C@H]2C[C@H](O)CN2C(=O)[C@@H](NC(=O)CCCCCCCCCCNCCCONC(=O)c2ccc(F)c(F)c2Nc2ccc(I)cc2F)C(C)(C)C)cc1`, the IC50 [5] was 1600 nM, the IC50 [6] was 1500 nM and the Activity [7] was “inactive”. For the same molecule, the Activity [8] was “inactive”, the Activity [9] was “inactive” and the Activity [10] was “inactive”. The GI50 [11] was “inactive”, the GI50 [12] was “inactive” and the GI50 [13] was “inactive”. The GI50 [14] was “inactive”, the inhibition [15] was “inactive” and the inhibition [16] was “inactive”.

For `O=C1CCC(N2C(=O)c3cccc(NCCNCCCONC(=O)c4ccc(F)c(F)c4Nc4ccc(I)cc4F)c3C2=O)C(=O)N1` (stereo not given), the Activity [3] was “inactive” and the Activity [4] was “inactive”.

For `O=C(NOC[C@H](O)CO)c1ccc(F)c(F)c1Nc1ccc(I)cc1F` [MIRDAMETINIB], the Activity [7] was “inactive”, the Activity [8] was “inactive” and the GI50 ([11]; HT-29, 72 h) was 3.1 nM. It also gave a GI50 ([12]; SK-MEL-28, 72 h) of 2.9 nM, a GI50 ([13]; COLO 205, 72 h) of 0.2 to 4.2 nM and a GI50 ([14]; UACC-257, 72 h) of 0.2 to 4.2 nM. For the same molecule, the inhibition [15] was “Active” and the inhibition [16] was “Active”.
